Here are results for five molecules from article PMC10175918 (Communications Biology, 2023).

Where two headings read alike, the source gives them in different places.

What all share (experiment): TGFα-shedding assay-based GPCR screening with chimeric Gα subunit proteins
Holding throughout (type): cell-based

Assay [1] has as its target T1, 348 GPCRs (Homo sapiens, UniProt Q9Y653).
T1 construct: expressed in transfected cells; host or cells: HEK293A

For assay [2], the target named is T2, 348 GPCRs (Homo sapiens, UniProt Q14833).
T2 construct: expressed in transfected cells; host or cells: HEK293A
T2 sequence (Q14833 33-912): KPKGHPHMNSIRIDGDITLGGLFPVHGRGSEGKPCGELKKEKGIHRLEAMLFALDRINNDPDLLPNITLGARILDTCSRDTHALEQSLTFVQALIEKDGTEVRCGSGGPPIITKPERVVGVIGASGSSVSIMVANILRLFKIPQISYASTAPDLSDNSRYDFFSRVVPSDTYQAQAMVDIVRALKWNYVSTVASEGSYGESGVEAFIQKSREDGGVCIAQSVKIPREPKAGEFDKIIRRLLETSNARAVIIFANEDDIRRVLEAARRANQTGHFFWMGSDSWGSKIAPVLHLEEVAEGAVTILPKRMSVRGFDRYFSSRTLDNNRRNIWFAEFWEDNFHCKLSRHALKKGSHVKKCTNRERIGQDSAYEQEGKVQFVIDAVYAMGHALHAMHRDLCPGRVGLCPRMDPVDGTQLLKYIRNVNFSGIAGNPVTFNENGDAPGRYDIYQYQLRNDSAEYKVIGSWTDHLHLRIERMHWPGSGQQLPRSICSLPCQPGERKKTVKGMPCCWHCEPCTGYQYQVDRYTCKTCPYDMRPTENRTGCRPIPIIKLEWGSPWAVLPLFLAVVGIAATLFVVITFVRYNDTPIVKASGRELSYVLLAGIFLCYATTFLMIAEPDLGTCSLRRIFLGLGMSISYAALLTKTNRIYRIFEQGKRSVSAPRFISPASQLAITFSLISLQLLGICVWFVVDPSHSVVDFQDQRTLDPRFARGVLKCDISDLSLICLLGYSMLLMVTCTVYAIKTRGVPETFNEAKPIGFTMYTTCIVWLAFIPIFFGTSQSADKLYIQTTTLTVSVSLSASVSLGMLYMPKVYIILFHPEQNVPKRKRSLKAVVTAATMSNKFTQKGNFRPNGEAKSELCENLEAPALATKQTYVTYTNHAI
The note with it: 10µM, Favipiravir 100μM.

Assay [3] concerns the target T3, 348 GPCRs (Homo sapiens, UniProt P32249).
T3 construct: expressed in transfected cells; host or cells: HEK293A
Conditions: EBI2 (G protein-coupled receptor 183 (Epstein-Barr Virus Induced Gene 2)); 10µM, Favipiravir 100μM.

The target of assay [4] is T4, 348 GPCRs (Homo sapiens, UniProt Q9H1C0).
T4 construct: expressed in transfected cells; host or cells: HEK293A
T4 sequence (Q9H1C0 whole entry): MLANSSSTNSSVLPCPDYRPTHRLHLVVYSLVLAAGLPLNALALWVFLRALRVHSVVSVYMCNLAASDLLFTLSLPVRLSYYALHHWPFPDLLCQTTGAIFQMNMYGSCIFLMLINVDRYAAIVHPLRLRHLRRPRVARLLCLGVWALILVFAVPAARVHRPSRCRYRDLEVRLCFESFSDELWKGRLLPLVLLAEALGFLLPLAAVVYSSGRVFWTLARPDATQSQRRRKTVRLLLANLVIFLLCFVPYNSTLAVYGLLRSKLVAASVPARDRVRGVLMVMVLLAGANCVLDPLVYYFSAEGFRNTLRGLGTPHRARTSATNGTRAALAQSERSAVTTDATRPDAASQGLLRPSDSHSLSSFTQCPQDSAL
The note with it: 10µM, Favipiravir 100μM.

The target in assay [5] is T5, 348 GPCRs (Homo sapiens, UniProt Q9NS75).
T5 construct: expressed in transfected cells; host or cells: HEK293A
T5 sequence (Q9NS75 1-346): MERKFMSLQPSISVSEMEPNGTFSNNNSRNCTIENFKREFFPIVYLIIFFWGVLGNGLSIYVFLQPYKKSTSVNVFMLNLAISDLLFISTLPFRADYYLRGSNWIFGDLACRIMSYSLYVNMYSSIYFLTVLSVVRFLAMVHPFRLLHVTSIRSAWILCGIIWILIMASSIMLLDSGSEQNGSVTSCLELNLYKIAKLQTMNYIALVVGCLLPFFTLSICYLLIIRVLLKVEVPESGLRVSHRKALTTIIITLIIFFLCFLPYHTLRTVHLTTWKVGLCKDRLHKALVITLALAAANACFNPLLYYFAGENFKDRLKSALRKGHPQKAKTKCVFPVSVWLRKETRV

Assay [6] deals with T6, 348 GPCRs (Homo sapiens, UniProt P20309).
T6 construct: expressed in transfected cells; host or cells: HEK293A
T6 sequence (P20309 whole entry): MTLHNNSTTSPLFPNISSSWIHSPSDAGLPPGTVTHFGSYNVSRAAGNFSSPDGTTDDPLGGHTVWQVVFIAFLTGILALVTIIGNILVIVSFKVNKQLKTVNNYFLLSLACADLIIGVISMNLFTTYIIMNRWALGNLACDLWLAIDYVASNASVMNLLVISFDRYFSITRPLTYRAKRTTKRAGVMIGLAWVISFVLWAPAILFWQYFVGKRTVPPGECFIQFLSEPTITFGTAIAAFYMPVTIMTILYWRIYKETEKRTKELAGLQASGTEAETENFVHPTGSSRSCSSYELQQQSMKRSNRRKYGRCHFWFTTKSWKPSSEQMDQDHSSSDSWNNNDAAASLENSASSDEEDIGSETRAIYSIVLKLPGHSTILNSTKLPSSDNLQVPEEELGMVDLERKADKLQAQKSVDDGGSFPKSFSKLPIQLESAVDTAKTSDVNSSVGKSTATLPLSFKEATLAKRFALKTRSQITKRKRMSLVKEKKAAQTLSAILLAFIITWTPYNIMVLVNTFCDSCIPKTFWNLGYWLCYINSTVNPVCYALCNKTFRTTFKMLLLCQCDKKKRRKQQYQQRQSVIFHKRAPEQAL

Assay [7] deals with T7, 348 GPCRs (Homo sapiens, UniProt P30559).
T7 construct: expressed in transfected cells; host or cells: HEK293A
T7 sequence (P30559 1-389): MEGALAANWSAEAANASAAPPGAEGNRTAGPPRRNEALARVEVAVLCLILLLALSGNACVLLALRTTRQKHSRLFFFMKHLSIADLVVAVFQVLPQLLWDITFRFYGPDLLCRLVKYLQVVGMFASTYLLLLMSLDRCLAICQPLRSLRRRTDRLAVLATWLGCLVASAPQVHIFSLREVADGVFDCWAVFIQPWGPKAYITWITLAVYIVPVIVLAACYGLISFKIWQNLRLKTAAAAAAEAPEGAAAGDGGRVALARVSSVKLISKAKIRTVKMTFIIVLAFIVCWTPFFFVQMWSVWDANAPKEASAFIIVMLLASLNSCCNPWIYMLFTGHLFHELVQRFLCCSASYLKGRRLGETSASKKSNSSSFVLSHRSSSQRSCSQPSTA

The target in assay [8] is T8, 348 GPCRs (Homo sapiens, UniProt P25025).
T8 sequence (P25025 1-360): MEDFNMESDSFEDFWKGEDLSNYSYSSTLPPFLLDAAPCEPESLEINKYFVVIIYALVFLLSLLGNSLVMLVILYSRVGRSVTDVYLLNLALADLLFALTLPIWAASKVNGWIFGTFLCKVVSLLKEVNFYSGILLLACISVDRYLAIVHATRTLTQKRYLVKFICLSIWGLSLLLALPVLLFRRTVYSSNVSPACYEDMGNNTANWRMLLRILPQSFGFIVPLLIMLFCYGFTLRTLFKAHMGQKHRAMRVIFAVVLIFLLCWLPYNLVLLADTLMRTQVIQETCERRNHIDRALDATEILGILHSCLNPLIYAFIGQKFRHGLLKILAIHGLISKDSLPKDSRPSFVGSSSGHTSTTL

Assay [9] deals with T9, 348 GPCRs (Homo sapiens, UniProt Q9HBW9).
T9 construct: expressed in transfected cells; host or cells: HEK293A
T9 sequence (Q9HBW9 20-690): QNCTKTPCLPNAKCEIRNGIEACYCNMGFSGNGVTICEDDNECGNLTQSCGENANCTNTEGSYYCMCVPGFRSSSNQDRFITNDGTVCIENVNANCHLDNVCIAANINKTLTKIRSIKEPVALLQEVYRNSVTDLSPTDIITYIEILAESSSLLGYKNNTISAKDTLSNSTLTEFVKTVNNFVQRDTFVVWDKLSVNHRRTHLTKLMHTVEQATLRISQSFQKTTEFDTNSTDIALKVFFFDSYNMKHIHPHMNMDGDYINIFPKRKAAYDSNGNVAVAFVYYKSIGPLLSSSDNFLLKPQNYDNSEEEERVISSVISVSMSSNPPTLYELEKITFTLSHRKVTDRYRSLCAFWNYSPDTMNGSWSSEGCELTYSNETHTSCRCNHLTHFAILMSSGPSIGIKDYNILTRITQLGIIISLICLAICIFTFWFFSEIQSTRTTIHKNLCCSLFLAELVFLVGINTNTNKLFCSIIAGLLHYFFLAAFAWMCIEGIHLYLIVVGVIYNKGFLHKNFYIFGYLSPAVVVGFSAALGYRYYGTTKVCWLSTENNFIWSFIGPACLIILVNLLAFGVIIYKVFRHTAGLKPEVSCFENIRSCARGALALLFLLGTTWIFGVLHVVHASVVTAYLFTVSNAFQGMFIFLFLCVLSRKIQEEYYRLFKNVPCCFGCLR
The note with it: 10µM, Favipiravir 100μM.

Setting [10] is: read-out: % GPCR activation compared to TPA, GPCR GPR56 (G protein-coupled receptor 56).
Where [11] appears, read: read-out: % GPCR activation compared to TPA, GRM4 (glutamate receptor, metabotropic 4).
The mark [12] stands for this setting: read-out: % GPCR activation compared to TPA, LPAR5 (lysophosphatidic acid receptor 5).
The mark [13] stands for this setting: read-out: % GPCR activation compared to TPA, GPCR CYSLTR2 (cysteinyl leukotriene receptor 2).
Setting [14] is: read-out: % GPCR activation compared to TPA, GPCR M3 (Muscarinic acetylcholine receptor M3).
Where [15] appears, read: read-out: % GPCR activation compared to TPA, GPCR OXTR (oxytocin Receptor).
Setting [16] is: read-out: % GPCR activation compared to TPA, GPCR CXCR2 (C-X-C motif chemokine receptor 2).
Where [17] appears, read: read-out: % GPCR activation compared to TPA, ELTD1 (EGF, latrophilin and seven transmembrane domain containing 1).
Setting [18] is: GRM4 (glutamate receptor, metabotropic 4), read-out: % GPCR activation compared to TPA.
Setting [19] is: LPAR5 (lysophosphatidic acid receptor 5), read-out: % GPCR activation compared to TPA.
Where [20] appears, read: ELTD1 (EGF, latrophilin and seven transmembrane domain containing 1), read-out: % GPCR activation compared to TPA.
Where [21] appears, read: GPCR GPR56 (G protein-coupled receptor 56), read-out: % GPCR activation compared to TPA.
Where [22] appears, read: GPCR CYSLTR2 (cysteinyl leukotriene receptor 2), read-out: % GPCR activation compared to TPA.
The mark [23] stands for this setting: GPCR M3 (Muscarinic acetylcholine receptor M3), read-out: % GPCR activation compared to TPA.
Where [24] appears, read: GPCR OXTR (oxytocin Receptor), read-out: % GPCR activation compared to TPA.
Where [25] appears, read: GPCR CXCR2 (C-X-C motif chemokine receptor 2), read-out: % GPCR activation compared to TPA.

T3 sequence (P32249 whole entry): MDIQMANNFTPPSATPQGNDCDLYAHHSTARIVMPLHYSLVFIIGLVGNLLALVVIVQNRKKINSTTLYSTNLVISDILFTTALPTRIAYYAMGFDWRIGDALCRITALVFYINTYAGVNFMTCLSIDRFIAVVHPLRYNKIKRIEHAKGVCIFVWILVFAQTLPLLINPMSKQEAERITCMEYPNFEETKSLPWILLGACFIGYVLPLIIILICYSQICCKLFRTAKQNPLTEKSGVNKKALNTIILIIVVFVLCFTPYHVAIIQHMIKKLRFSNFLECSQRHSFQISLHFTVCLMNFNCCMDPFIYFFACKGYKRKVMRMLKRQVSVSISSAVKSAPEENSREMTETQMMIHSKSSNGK
T1 sequence (Q9Y653 26-693): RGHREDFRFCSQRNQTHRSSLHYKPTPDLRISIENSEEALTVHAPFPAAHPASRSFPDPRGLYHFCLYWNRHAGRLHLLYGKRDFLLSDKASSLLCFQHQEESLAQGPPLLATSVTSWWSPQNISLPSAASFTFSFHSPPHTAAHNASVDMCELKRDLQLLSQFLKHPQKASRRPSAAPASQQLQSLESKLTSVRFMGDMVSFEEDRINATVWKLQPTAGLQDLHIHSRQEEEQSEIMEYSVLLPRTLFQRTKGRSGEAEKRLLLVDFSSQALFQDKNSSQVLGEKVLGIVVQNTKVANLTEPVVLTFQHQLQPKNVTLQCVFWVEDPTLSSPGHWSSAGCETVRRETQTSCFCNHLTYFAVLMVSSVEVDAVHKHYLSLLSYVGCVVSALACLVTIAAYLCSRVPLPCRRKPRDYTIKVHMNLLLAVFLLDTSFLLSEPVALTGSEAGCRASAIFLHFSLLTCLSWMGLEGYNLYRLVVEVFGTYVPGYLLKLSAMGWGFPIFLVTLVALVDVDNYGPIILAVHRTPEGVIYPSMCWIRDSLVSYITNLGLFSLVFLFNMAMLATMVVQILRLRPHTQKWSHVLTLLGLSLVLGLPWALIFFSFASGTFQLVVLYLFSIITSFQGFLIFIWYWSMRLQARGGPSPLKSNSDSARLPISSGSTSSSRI

Regarding `CC(C)OC(=O)[C@H](C)N[P@](=O)(OC[C@H]1O[C@@H](n2ccc(=O)[nH]c2=O)[C@](C)(F)[C@@H]1O)Oc1ccccc1` [sofosbuvir], the activation at 10 µM was 0.191% on 348 GPCRs [1] (setting [10]); 2.56% at 348 GPCRs [2] (setting [11]); 1.1% on 348 GPCRs [4] (setting [12]); -0.91% on 348 GPCRs [5] (setting [13]); -1.32% on 348 GPCRs [6] (setting [14]); -3.36% at 348 GPCRs [7] (setting [15]). In addition, the activation at 10 µM at 348 GPCRs [8] (setting [16]) was -1.43%. On 348 GPCRs [3], the “% GPCR activation compared to TPA” value is given as -0.7581%. Besides, the activation at 100 µM on 348 GPCRs [9] (setting [17]) amounted to 0.08%.

For `NC(=O)c1nc(F)cnc1O` [favipiravir, 6-fluoro-3-hydroxy-2-pyrazinecarboxamide], the activation at 100 µM on 348 GPCRs [1] (GPCR GPR56 (G protein-coupled receptor 56), 100μM, read-out: % GPCR activation compared to TPA) was -0.74%; on 348 GPCRs [5] (GPCR CYSLTR2 (cysteinyl leukotriene receptor 2), 100μM, read-out: % GPCR activation compared to TPA), -1.33%; at 348 GPCRs [6] (GPCR M3 (Muscarinic acetylcholine receptor M3), 100μM, read-out: % GPCR activation compared to TPA), 0.164%; at 348 GPCRs [7] (GPCR OXTR (oxytocin Receptor), 100μM, read-out: % GPCR activation compared to TPA), -0.726%; on 348 GPCRs [8] (GPCR CXCR2 (C-X-C motif chemokine receptor 2), 100μM, read-out: % GPCR activation compared to TPA) it was -0.272%; at 348 GPCRs [9] (setting [20]), -0.0903%. In addition, the activation at 10 µM at 348 GPCRs [2] (setting [18]) is 1.65%; on 348 GPCRs [4] (setting [19]) it was -1.99%. Moreover, on 348 GPCRs [3], the “% GPCR activation compared to TPA” value was -1.156%.

On to `CCC(CC)COC(=O)[C@H](C)N[P@](=O)(OC[C@H]1O[C@@](C#N)(c2ccc3c(N)ncnn23)[C@H](O)[C@@H]1O)Oc1ccccc1` [remdesivir], for which the activation at 10 µM at 348 GPCRs [1] (setting [10]) was -0.797%; at 348 GPCRs [2] (setting [11]), -0.0103%; at 348 GPCRs [4] (setting [12]) it was 2.15%; at 348 GPCRs [5] (setting [13]) it was -0.408%; at 348 GPCRs [6] (setting [14]), 2.85%; at 348 GPCRs [7] (setting [15]) it was 0.33%. For the same molecule, the activation at 10 µM on 348 GPCRs [8] (setting [16]) is 2.41%. The “% GPCR activation compared to TPA” value at 348 GPCRs [3] is reported as 0.4815%. In addition, the activation at 100 µM at 348 GPCRs [9] (setting [17]) came out at 0.0637%.

`N#C[C@@]1(c2ccc3c(N)ncnn23)O[C@H](CO)[C@@H](O)[C@H]1O` [GS441524]: the activation at 10 µM on 348 GPCRs [1] (setting [21]) is -3.73%; at 348 GPCRs [2] (setting [18]), 1.52%; on 348 GPCRs [4] (setting [19]), 2.96%; at 348 GPCRs [5] (setting [22]), -1.21%; on 348 GPCRs [6] (setting [23]), 3.5%; at 348 GPCRs [7] (setting [24]), -1.2%. For the same molecule, at 348 GPCRs [8] (setting [25]), the activation at 10 µM is 0.398%. Moreover, the “% GPCR activation compared to TPA” value at 348 GPCRs [3] is on record as -1.471%. Moreover, at 348 GPCRs [9] (setting [20]), the activation at 100 µM was -0.971%.

As to `CC(C)C(=O)OC[C@H]1O[C@@H](n2ccc(NO)nc2=O)[C@H](O)[C@@H]1O` [molnupiravir], the activation at 10 µM was -2.2% on 348 GPCRs [1] (setting [21]); -0.478% at 348 GPCRs [2] (setting [18]); -2.73% on 348 GPCRs [4] (setting [19]); -0.187% on 348 GPCRs [5] (setting [22]); -0.147% on 348 GPCRs [6] (setting [23]); -2.8% at 348 GPCRs [7] (setting [24]). The activation at 10 µM on 348 GPCRs [8] (setting [25]) turned out to be 0.926%. For the same molecule, the “% GPCR activation compared to TPA” value at 348 GPCRs [3] is recorded as -0.8417%. For the same molecule, the activation at 100 µM at 348 GPCRs [9] (setting [20]) was -0.0765%.
